Legend:
[1] = Colorimetric assay: visual color change in solution on addition of fluoride anion; details: in solution (dichloromethane), naked eye
Text: (§1) Nonetheless, even with these control systems the addition of tetrabutylammonium salts of various anions (F^−, Cl^− and H2PO4^−), gave rise to results that were quite interesting. […] Such effects can be rationalized in terms of the electron withdrawing nature of the two carbonyl groups, which serve to pull the electrons from the pyrrole units and thus act to increase the acidity of the pyrrolic NH protons. As a result, hydrogen bonding interactions with F^− are favored. In the particular case of inorganic phosphate, we speculate that the two carbonyl groups may also be involved in binding, stabilizing the complex via ancillary hydrogen bonding interactions involving the two HOP-phosphate protons.
Unfortunately, the fluorescence quantum yield of 10 is low.
Using 2,3-dipyrrol-2′yl-5,6dicyanopyrazine (preparation is described in Example 30) as a sensing compound, a vivid yellow-to-red color change in solution observed upon addition of fluoride ion verifies that the quinoxaline backbone is not essential for chemical sensing in this family of compounds. This is consistent with the theory that changes in orbital overlap between the pi systems of conjugated bridging unit and the pyrrole rings account for the sensitivity of the sensing elements to analyte species.
In order to understand more fully the above results, studies were performed to map out the mode of fluoride anion binding. Firstly, it was verified that two pyrrolic nitrogens are required to observe the anion-induced color change. Toward this end, the mono protected 2,3-dipyrrylquinoxaline 12 was prepared by reacting 0.8 equivalents of SEMCl with one equivalent of 2,3-dipyrrylquinoxaline.

[2] = Anion binding constants (Ka) by fluorescence quenching / UV-vis absorbance titration, fluoride; details: for Anion binding constant (Ka), F^−: 1 by fluorescence quenching (λex 412 nm), 10 by UV-vis absorbance titration at 341 nm, errors ± 10%, average of 2-4 trials; for affinity constant (Ka) for F^− binding, rounded: in dichloromethane
Text: (§2) The conclusion that 1 binds fluoride anion in dichloromethane solution was further supported by mass spectrometric analyses and titration experiments made using UV-visible absorption and fluorescence emission methods (Tables 1 and 2). The latter studies, which provided Ka values (Tables 1 and 2), were complemented by molar ratio analyses (Job plots) with 1:1 binding stoichiometries observed in all cases.
as §1

[3] = Anion binding constants (Ka) by fluorescence quenching / UV-vis absorbance titration, dihydrogen phosphate; details: dichloromethane; for Anion binding constant (Ka), H2PO4^−: 1 by fluorescence quenching, 10 by UV-vis absorbance titration at 341 nm, errors ± 10%, average of 2-4 trials
Text: as §2, §1

[4] = Anion binding constants (Ka) by fluorescence quenching / UV-vis absorbance titration, chloride; details: dichloromethane; for Anion binding constant (Ka), Cl^−: 1 by fluorescence quenching, 10 by UV-vis absorbance titration at 341 nm, errors ± 10%, average of 2-4 trials
Text: as §2, §1

## N#Cc1nc(-c2ccc[nH]2)c(-c2ccc[nH]2)nc1C#N [2,3-dipyrrol-2′yl-5,6dicyanopyrazine, 2,3-dipyrrol-2′yl-5,6-dicyanopyrazine]
[1]
  fluoride anion-induced color change: yellow-to-red

## c1c[nH]c(-c2nc3ccccc3nc2-c2ccc[nH]2)c1 [compound 1, 2,3-dipyrrylquinoxaline]
[2]; dichloromethane
  Anion binding constant (Ka), F^−: 18,200 M^−1
[2]
  affinity constant (Ka) for F^− binding, rounded: 20000 M⁻¹
[3]
  Anion binding constant (Ka), H2PO4^−: 60 M⁻¹
[4]
  Anion binding constant (Ka), Cl^−: 50 M⁻¹
[1]
  fluoride anion-induced color change: yellow to orange

## COc1cc2nc(-c3ccc[nH]3)c(-c3ccc[nH]3)nc2cc1OC [compound 2, 2,3-dipyrrol-2′-yl-6,7-dimethoxyquinoxaline]
[2]; dichloromethane
  Anion binding constant (Ka), F^−: 2,300 M^−1
[2]
  affinity constant (Ka) for F^− binding, rounded: 2000 M⁻¹
[3]
  Anion binding constant (Ka), H2PO4^−: <50 M⁻¹
[4]
  Anion binding constant (Ka), Cl^−: <50 M⁻¹
[1]
  fluoride anion-induced color change: hardly “works” at all

## O=[N+]([O-])c1cc2nc(-c3ccc[nH]3)c(-c3ccc[nH]3)nc2cc1[N+](=O)[O-] [compound 3, 2,3-dipyrrol-2′-yl-6,7-dinitroquinoxaline]
[2]; dichloromethane
  Anion binding constant (Ka), F^−: 117,000 M^−1
[2]
  affinity constant (Ka) for F^− binding, rounded: ~10^5 M^−1
[3]
  Anion binding constant (Ka), H2PO4^−: 55 M⁻¹
[4]
  Anion binding constant (Ka), Cl^−: 45 M⁻¹

## O=[N+]([O-])c1ccc2nc(-c3ccc[nH]3)c(-c3ccc[nH]3)nc2c1 [compound 7, 6-nitro-2,3-dipyrrylquinoxaline]
[2]; dichloromethane
  Anion binding constant (Ka), F^−: 118,000 M^−1
[2]
  affinity constant (Ka) for F^− binding, rounded: ~10^5 M^−1
[3]
  Anion binding constant (Ka), H2PO4^−: 80 M⁻¹
[4]
  Anion binding constant (Ka), Cl^−: 45 M⁻¹
[1]
  fluoride anion-induced color change: yellow to purple

## c1ccc2nccnc2c1 [compound 11, quinoxaline, reference compound]
[2]; dichloromethane, tetrabutylammonium salt
  change in the absorbance or emission spectra on addition of F^−: did not induce any significant change in the absorbance or emission spectra
[3]; tetrabutylammonium salt
  change in the absorbance or emission spectra on addition of H2PO4^−: did not induce any significant change in the absorbance or emission spectra
[4]; tetrabutylammonium salt
  change in the absorbance or emission spectra on addition of Cl^−: did not induce any significant change in the absorbance or emission spectra

## C[Si](C)(C)CCOCn1cccc1-c1nc2ccccc2nc1-c1ccc[nH]1 [compound 12]
[2]; dichloromethane
  Anion binding constant (Ka), F^−: 2,300 M^−1
[3]
  Anion binding constant (Ka), H2PO4^−: <50 M⁻¹
[4]
  Anion binding constant (Ka), Cl^−: <50 M⁻¹
[1]
  fluoride anion-induced color change: no color change

From US6482949B1, “Colormetric sensor compositions and methods” (priority 1999, dated 2002)
